Assay results reported in patent publication US20160129005A1, “ADENINE DERIVATIVES HAVING IMMUNOMODULATING ANTI-INFLAMMATORY AND ANALGESIC ACTIVITY” (MEDESTEA RESEARCH & PRODUCTION S.p.A., priority 2011, published 2016).

Experiments:
[1] = tested on: C57BL/6 mice transplanted with BALB/c hearts; experiment: Murine heterotopic heart transplant model; format: in vivo, mouse; conditions: Rapamycin alone 0.1 mg/kg day 0 to day 10; n=5; Ctrl MST=7
Description: The immunosuppressive potential of […] was tested on a heterotopic heart transplant model; hearts of BALB/c mice were transplanted into the abdominal cavity of C57BL/6 mice.
The beats of the heart were measured, twice weekly, by palpation; stopping of beating was regarded as a sign of transplant rejection.
Three different protocols were used for prolonging transplant survival times: the “short-term” protocol ([…] 9 mg/kg daily for 14 days), the “long-term” protocol ([…] 9 mg/kg every day until rejection), and the “Combo” protocol ([…] on alternate days: day 0, 2, 4, 6, 8, 10, 12, 14+Rapamycin 0.1 mg/kg from day 0 to day 10).
In the acute heart transplant models, the hearts of BALB/c were transplanted into the peritoneal cavity of C57BL/6 mice. The control mice invariably reject the transplant in 10 days (Ctrl: MST=7 days, n=12), (FIG. 26). The “short-term” protocol permitted indefinite survival (100 days) in 10 mice out of 12 (n=12; p=0.0001 vs. Ctrl), (FIG. 26). Similarly, the “long-term” protocol permitted indefinite survival in 8 mice out of 10 (n=10; p=0.002 vs Ctrl), and prolonged survival in the remaining 2 (16 days and 25 days; p=0.002 vs. Ctrl), (FIG. 26).
The histological sections of the hearts on day 7 of BALB/c mice, transplanted into a C57BL/6 host, and treated with the “short-term” protocol, were also analysed.

Swiss CD1 mice = experiment: CFA thermal hyperalgesia, synergy with opioids
Description: We compared the activity of […] with that of the opioids to study its analgesic effect.
Mice of the Swiss CD1 type were given a single intraplantar injection of 30 microlitres of complete Freund adjuvant (CFA) in the right plantar pad. Intraperitoneal injection of […] and/or of morphine (morphine chlorhydrate, Molteni) was administered 24 hours after injection of CFA according to the following scheme:
1. […] 7.5 mg/kg; 2. […] 10 mg/kg; 3. […] 200 mg/kg; 4. […] 50 mg/kg; 5. Morphine 0.4 mg/kg; 6. Morphine 2.5 mg/kg; 7. Morphine 1 mg/kg; 8. Morphine 0.4 mg/kg; 9. Morphine 1 mg/kg+[…] 10 mg/kg; 10. Morphine 0.4 mg/kg+[…] 10 mg/kg; 11. Morphine 1 mg/kg+[…] 10 mg/kg; 12. Morphine 0.4 mg/kg+[…] 10 mg/kg; 13. Morphine 4 mg/kg.
Groups 9-11 and 10-12 have the same doses respectively; they were repeated to confirm the results.
Thermal hyperalgesia was assessed using the Ugo Basile apparatus (Comerio, Italy).
The test was carried out before (baseline values) injection of CFA, after injection of CFA and 0.5, 1, 2, 3, 6 and 12 hours after injecting the drug in the inflamed pad.

Structure (SMILES)	MST (mean survival time) [1] [days]	obsessive-compulsive disorders (behaviour) (Swiss CD1 mice; morphine 2.5 mg/kg or higher doses)	activity on nociception (Swiss CD1 mice; morphine alone i.p. at the highest dose)
CO[C@H]1C[C@@H]2CC[C@@H](C)[C@@](O)(O2)C(=O)C(=O)N2CCCC[C@H]2C(=O)O[C@H]([C@H](C)C[C@@H]2CC[C@@H](O)[C@H](OC)C2)CC(=O)[C@H](C)/C=C(\C)[C@@H](O)[C@@H](OC)C(=O)[C@H](C)C[C@H](C)/C=C/C=C/C=C/1C [Rapamycin, reference compound]	25		
CN1CC[C@]23c4c5ccc(O)c4O[C@H]2[C@@H](O)C=C[C@H]3[C@H]1C5 [morphine, morphine chlorhydrate, reference compound]		displayed obsessive-compulsive disorders	anaesthetic-like
